These results are taken from patent US20250154163A1, “Pyrimidinone-Containing 17-Beta-Hydroxysteroid Dehydrogenase Type 13 Inhibitors” (ENANTA PHARMACEUTICALS, INC., priority 2023, published 2025).

For assay [1], the target named is T1, Recombinant human 17β-HSD13 (Homo sapiens, UniProt Q7Z5P4).
T1 construct: host or cells: Sf9 insect cells
T1 sequence (Q7Z5P4 20-300): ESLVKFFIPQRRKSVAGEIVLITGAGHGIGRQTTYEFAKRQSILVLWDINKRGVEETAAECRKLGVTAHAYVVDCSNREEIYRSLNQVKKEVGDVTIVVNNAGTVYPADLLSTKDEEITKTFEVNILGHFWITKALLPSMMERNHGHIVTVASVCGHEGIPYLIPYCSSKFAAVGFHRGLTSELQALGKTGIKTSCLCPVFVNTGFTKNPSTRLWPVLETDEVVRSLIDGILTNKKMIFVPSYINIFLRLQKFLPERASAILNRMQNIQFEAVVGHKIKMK
The assay is described as follows: 17β-HSD13 rapid-fire mass spectrometry assay (RF/MS assay). Type of assay: biochemical. Conditions: inhibition of 17β-HSD13, RF/MS assay; HSD17B13 80 nM, LTB4 10 μM, NAD+ 0.5 mM, RT 3 h. An outline of the steps:
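Purified recombinant human 17β-HSD13 (sf9-expressed, 80 nM) incubated with compound (0–100 μM), 10 μM LTB4 and 0.5 mM NAD+ in 20 mM Tris pH 7.5, 0.005% BSA, 0.01% Tween-20, 3 h at RT. 12-oxo-LTB4 formation quantified by RapidFire MS/MS; percent conversion normalized to controls, IC50 from variable-slope fit, duplicates.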

Assay [2] has as its system C57BL/6J mice fed CDAA-HF. The assay is described as follows: Fibrotic markers in livers of mice fed choline deficient high fat (CDAA-HF) diet. It is filed as in vivo, mouse. The settings on record: 20, 60 and 200 mg/kg oral gavage daily, final week of 4 weeks CDAA-HF, *p<0.05 vs vehicle. The procedure:
The choline deficient amino acid defined diet (CDAA) is a well-characterized model of […] associated liver inflammation and fibrosis. The CDAA-HF mouse model is commonly used to preclinically evaluate potential therapeutic targets for non-alcoholic steatohepatitis (NASH). To investigate the effect of Compound 26 (Example 26; 20, 60, and 200 mg/kg, oral gavage, daily) on fibrotic gene and protein parameters, 10 week-old male C57BL/6J mice were fed CDAA-HF (choline deficient, L-amino acid defined, high fat diet; A16092201) for 4 weeks, with Compound 26 treatment only during the final week of the study. On the last day of the study, mice were euthanized by CO2 asphyxiation for tissue collection, and blood was collected by cardiac puncture. Livers were rapidly removed and frozen in liquid nitrogen for downstream mRNA and protein isolation. […] Statistical analysis was performed with One Way ANOVA. *p<0.05 vs vehicle treated (FIG. 1). Col1a1=Collagen; TGFB2=transforming growth factor beta 2. All procedures performed on animals were in accordance with regulations and established guidelines and were reviewed and approved by an Institutional Animal Care and Use Committee or through an ethical review process.

With `CS(=O)(=O)c1ccc(-c2nc3sc4c(O)c(Cl)ccc4c3c(=O)n2Cc2cnc(C(F)(F)F)nc2)c(C2CC2)c1` [Example 64, 7-chloro-2-(2-cyclopropyl-4-(methylsulfonyl)phenyl)-8-hydroxy-3-((2-(trifluoromethyl)pyrimidin-5-yl)methyl)benzo[4,5]thieno[2,3-d]pyrimidin-4(3H)-one], the IC50 in assay [1] is < 100 nM.
On to `COc1ccc(-c2nc3sc4c(O)c(Cl)ccc4c3c(=O)n2Cc2cnco2)c(C2CC2)c1` [Example 26, 7-chloro-2-(2-cyclopropyl-4-methoxyphenyl)-8-hydroxy-3-(oxazol-5-ylmethyl)benzo[4,5]thieno[2,3-d]pyrimidin-4(3H)-one], for which the IC50 in assay [1] was < 100 nM. Besides, in assay [2] (FIG. 1a), the “liver collagen (Col1a1) mRNA” value is “significantly decreases”. Further, the “liver TGFB2 (fibrotic cytokine)” value in assay [2] (FIG. 1b) is “significantly decreases”. For the same compound, the “liver fibronectin (fibroblast activation marker)” value in assay [2] (FIG. 1c) was “significantly decreases”.

As a reminder, the IC50 is the concentration that inhibits the measured activity by half.
